Measured values published in patent US10800725B2, “Arylpropionyl-triketone antibacterial agents” (priority 2010, dated 2020).
≈ marks a conversion by molar mass, not a printed value.

How the values were obtained:
[1] = molecular target: E. coli RNA polymerase σ70 holoenzyme (Escherichia coli (strain K12), UniProt P0A8T7+P0A8V2); experiment: Fluorescence-detected RNA polymerase assay, E. coli RNAP; format: biochemical
Description: (§1) Fluorescence-detected RNA polymerase assays with E. coli RNA polymerase were performed by a modification of the procedure of Kuhlman et al., 2004 [Kuhlman, P., Duff, H. & Galant, A. (2004) A fluorescence-based assay for multisubunit DNA-dependent RNA polymerases. Anal. Biochem. 324, 183-190]. Reaction mixtures contained (20 μl): 0-100 nM test compound, 75 nM E. coli RNA polymerase σ^70 holoenzyme, 20 nM 384 bp DNA fragment containing the bacteriophage T4 N25 promoter, 100 μM ATP, 100 μM GTP, 100 μM UTP, 100 μM CTP, 50 mM Tris-HCl, pH 8.0, 100 mM KCl, 10 mM MgCl2, 1 mM DTT, 10 μg/ml bovine serum albumin, and 5.5% glycerol. Reaction components other than DNA and NTPs were pre-incubated for 10 min at 37° C. Reactions were carried out by addition of DNA and incubation for 5 min at 37° C., followed by addition of NTPs and incubation for 60 min at 37° C. DNA was removed by addition of 1 μl 5 mM CaCl2 and 2 U DNaseI (Ambion, Inc.), followed by incubation for 90 min at 37° C. RNA was quantified by addition of 100 μl RiboGreen RNA Quantitation Reagent (Invitrogen, Inc.; 1:500 dilution in Tris-HCl, pH 8.0, 1 mM EDTA), followed by incubation for 10 min at 25° C., followed by measurement of fluorescence intensity [excitation wavelength=485 nm and emission wavelength=535 nm; QuantaMaster QM1 spectrofluorometer (PTI, Inc.)]. IC50 is defined as the concentration of inhibitor resulting in 50% inhibition of RNA polymerase activity.

[2] = molecular target: M. tuberculosis RNA polymerase core enzyme + σA (Mycobacterium tuberculosis (strain ATCC 25618 / H37Rv), UniProt P9WGY7+P9WGY9); experiment: Fluorescence-detected RNA polymerase assay, M. tuberculosis RNAP; format: biochemical
Description: as §1
Fluorescence-detected RNA polymerase assays with M. tuberculosis RNA polymerase were performed as in Example 21.1, using reaction mixtures containing (20 μl): 0-100 nM test compound, 75 nM M. tuberculosis RNA polymerase core enzyme, 300 nM M. tuberculosis σ^A, 20 nM 384 bp DNA fragment containing the bacteriophage T4 N25 promoter, 100 μM ATP, 100 μM GTP, 100 μM UTP, 100 μM CTP, 40 mM Tris-HCl, pH 8.0, 80 mM NaCl, 5 mM MgCl2, 2.5 mM DTT, and 12.7% glycerol. IC50 is defined as the concentration of inhibitor resulting in 50% inhibition of RNA polymerase activity.

[3] = molecular target: S. aureus RNA polymerase core enzyme + σA (Staphylococcus aureus (strain NCTC 8325 / PS 47), UniProt P47768+Q2G0N5); experiment: Fluorescence-detected RNA polymerase assay, S. aureus RNAP; format: biochemical
Description: as §1
Fluorescence-detected RNA polymerase assays with S. aureus RNA polymerase were performed as in Example 21.1, using reaction mixtures containing (20 μl): 0-100 nM test compound, 75 nM S. aureus RNA polymerase core enzyme, 300 nM S. aureus σ^A, 20 nM 384 bp DNA fragment containing the bacteriophage T4 N25 promoter, 100 μM ATP, 100 μM GTP, 100 μM UTP, 100 μM CTP, 40 mM Tris-HCl, pH 8.0, 80 mM NaCl, 5 mM MgCl2, 2.5 mM DTT, and 12.7% glycerol. IC50 is defined as the concentration of inhibitor resulting in 50% inhibition of RNA polymerase activity.

[4] = test system: Bacillus anthracis Vollum-1b; experiment: microbe, parasite or virus in culture; format: cell-based; details: VOLLUM1B, read-out: MIC B. anthracis Vollum-1b
[5] = test system: Francisella tularensis SCHU4; experiment: microbe, parasite or virus in culture; format: cell-based; details: SCHU4, read-out: MIC F. tularensis SCHU4
[6] = test system: Mycobacterium tuberculosis H37Rv; experiment: MIC, microplate Alamar Blue assay; details: read-out: MIC M. tuberculosis H37Rv
[7] = test system: Staphylococcus aureus ATCC 12600; experiment: MIC, spiral gradient endpoint assay; details: ATCC12600, read-out: MIC S. aureus 12600
[8] = test system: Enterococcus faecalis ATCC 19433; experiment: MIC, spiral gradient endpoint assay; details: ATCC19433, read-out: MIC E. faecalis 19433
[9] = test system: Escherichia coli D21f2tolC; experiment: MIC, spiral gradient endpoint assay; details: read-out: MIC E. coli D21f2tolC
[10] = test system: Streptococcus pneumoniae ATCC 49619; experiment: MIC, spiral gradient endpoint assay (GC II agar, 5% CO2); details: ATCC49619, read-out: MIC S. pneumoniae 49619
[11] = test system: Streptococcus pyogenes ATCC 12344; experiment: as above; details: ATCC12344, read-out: MIC S. pyogenes 12344
[12] = test system: Moraxella catarrhalis ATCC 25238; experiment: as above; details: ATCC25238, read-out: MIC M. catarrhalis 25238
[13] = test system: Staphylococcus aureus ATCC 13709 MSSA; experiment: MIC, spiral gradient endpoint assay; details: read-out: MIC S. aureus 13709
[14] = test system: Staphylococcus aureus BAA-1707 MRSA (MW2); experiment: MIC, spiral gradient endpoint assay; details: read-out: MIC S. aureus MRSA 1707
[15] = test system: Staphylococcus aureus BAA-1717 MRSA (USA300); experiment: MIC, spiral gradient endpoint assay; details: read-out: MIC S. aureus MRSA 1717
[16] = test system: Enterococcus faecium ATCC 19434; experiment: MIC, spiral gradient endpoint assay; details: ATCC19434, read-out: MIC E. faecium 19434

Compound | IC50 [1] | IC50 [2] | IC50 [3] | MIC [4] | MIC [5] | MIC [6] | MIC [7] | MIC [8] | MIC [9] | MIC [10] | MIC [11] | MIC [12] | MIC [13] | MIC [14] | MIC [15] | MIC [16]
COc1ccccc1CCC(=O)C1=C(O)C(CCC(C)C)=C(O)C(CCC(C)C)(CCC(C)C)C1=O [Compound 4, 3,5-dihydroxy-2-(3-(2-methoxyphenyl)propanoyl)-4,6,6-triisopentylcyclohexa-2,4-dienone] | 1.9 µM | 1.6 µM | 4.3 µM | 0.098 µg/mL (≈ 0.197 µM) | > 50 µg/mL | > 50 µg/mL | 0.6 µg/mL (≈ 1.2 µM) | 3 µg/mL (≈ 6.02 µM) | 12 µg/mL (≈ 24.1 µM) | 2.7 µg/mL (≈ 5.41 µM) | 15 µg/mL (≈ 30.1 µM) | > 40 µg/mL | – | – | – | –
COc1cccc(CCC(=O)C2=C(O)C(CCC(C)C)=C(O)C(CCC(C)C)(CCC(C)C)C2=O)c1 [Compound 5, 3,5-dihydroxy-2-(3-(3-methoxyphenyl)propanoyl)-4,6,6-triisopentylcyclohexa-2,4-dienone] | 1.1 µM | 1.1 µM | 3.1 µM | 0.049 µg/mL (≈ 0.0983 µM) | 1.56 µg/mL (≈ 3.13 µM) | 50 µg/mL (≈ 100 µM) | 0.4 µg/mL (≈ 0.802 µM) | 2 µg/mL (≈ 4.01 µM) | 2 µg/mL (≈ 4.01 µM) | 3.5 µg/mL (≈ 7.02 µM) | 7.1 µg/mL (≈ 14.2 µM) | 19 µg/mL (≈ 38.1 µM) | – | – | – | –
COc1ccc(CCC(=O)C2=C(O)C(CCC(C)C)=C(O)C(CCC(C)C)(CCC(C)C)C2=O)cc1 [Compound 6, 3,5-dihydroxy-2-(3-(4-methoxyphenyl)propanoyl)-4,6,6-triisopentylcyclohexa-2,4-dienone] | 1.8 µM | 1.2 µM | 3.4 µM | 0.098 µg/mL (≈ 0.197 µM) | > 50 µg/mL | 50 µg/mL (≈ 100 µM) | 0.6 µg/mL (≈ 1.2 µM) | 12 µg/mL (≈ 24.1 µM) | 6 µg/mL (≈ 12 µM) | 5.6 µg/mL (≈ 11.2 µM) | 15 µg/mL (≈ 30.1 µM) | 19 µg/mL (≈ 38.1 µM) | – | – | – | –
CC(C)CCC1=C(O)C(CCC(C)C)(CCC(C)C)C(=O)C(C(=O)CCc2ccccc2)=C1O [Compound 15, 3,5-dihydroxy-2-(3-phenylpropanoyl)-4,6,6-triisopentylcyclohexa-2,4-dienone] | 3.5 µM | 2.6 µM | 11 µM | 0.098 µg/mL (≈ 0.209 µM) | 0.19 µg/mL (≈ 0.405 µM) | 50 µg/mL (≈ 107 µM) | 0.5 µg/mL (≈ 1.07 µM) | 1 µg/mL (≈ 2.13 µM) | 4 µg/mL (≈ 8.53 µM) | 12 µg/mL (≈ 25.6 µM) | 12 µg/mL (≈ 25.6 µM) | 25 µg/mL (≈ 53.3 µM) | 0.5 µg/mL (≈ 1.07 µM) | 0.4 µg/mL (≈ 0.853 µM) | 0.5 µg/mL (≈ 1.07 µM) | 1.5 µg/mL (≈ 3.2 µM)
CCC1=C(O)C(CC)(CC)C(=O)C(C(=O)CCc2ccccc2)=C1O [Compound 16, 3,5-dihydroxy-2-(3-phenylpropanoyl)-4,6,6-triethylcyclohexa-2,4-dienone] | > 400 µM | > 400 µM | > 400 µM | – | – | > 50 µg/mL | 4 µg/mL (≈ 11.7 µM) | 19 µg/mL (≈ 55.5 µM) | 5 µg/mL (≈ 14.6 µM) | 15 µg/mL (≈ 43.8 µM) | 19 µg/mL (≈ 55.5 µM) | > 40 µg/mL | 6 µg/mL (≈ 17.5 µM) | 6 µg/mL (≈ 17.5 µM) | 8 µg/mL (≈ 23.4 µM) | 5 µg/mL (≈ 14.6 µM)
CCCC1=C(O)C(CCC)(CCC)C(=O)C(C(=O)CCc2ccccc2)=C1O [Compound 17, 3,5-dihydroxy-2-(3-phenylpropanoyl)-4,6,6-tripropylcyclohexa-2,4-dienone] | 70 µM | 140 µM | > 400 µM | – | – | > 50 µg/mL | 1 µg/mL (≈ 2.6 µM) | 3 µg/mL (≈ 7.8 µM) | 1.3 µg/mL (≈ 3.38 µM) | 15 µg/mL (≈ 39 µM) | 19 µg/mL (≈ 49.4 µM) | > 40 µg/mL | 2 µg/mL (≈ 5.2 µM) | 2 µg/mL (≈ 5.2 µM) | 2 µg/mL (≈ 5.2 µM) | 1 µg/mL (≈ 2.6 µM)
CCCCC1=C(O)C(CCCC)(CCCC)C(=O)C(C(=O)CCc2ccccc2)=C1O [Compound 18, 3,5-dihydroxy-2-(3-phenylpropanoyl)-4,6,6-tributylcyclohexa-2,4-dienone] | 33 µM | 22 µM | 80 µM | 0.049 µg/mL (≈ 0.115 µM) | 25 µg/mL (≈ 58.6 µM) | 50 µg/mL (≈ 117 µM) | < 0.5 µg/mL | 11 µg/mL (≈ 25.8 µM) | 1.2 µg/mL (≈ 2.81 µM) | 9.3 µg/mL (≈ 21.8 µM) | 12 µg/mL (≈ 28.1 µM) | 24 µg/mL (≈ 56.3 µM) | 0.8 µg/mL (≈ 1.88 µM) | 0.8 µg/mL (≈ 1.88 µM) | < 0.5 µg/mL | 0.6 µg/mL (≈ 1.41 µM)
CCCCCC1=C(O)C(CCCCC)(CCCCC)C(=O)C(C(=O)CCc2ccccc2)=C1O [Compound 19, 3,5-dihydroxy-2-(3-phenylpropanoyl)-4,6,6-tripentylcyclohexa-2,4-dienone] | 7.3 µM | 4.1 µM | 13 µM | 0.049 µg/mL (≈ 0.105 µM) | 0.39 µg/mL (≈ 0.832 µM) | 50 µg/mL (≈ 107 µM) | 2 µg/mL (≈ 4.27 µM) | 9 µg/mL (≈ 19.2 µM) | 14 µg/mL (≈ 29.9 µM) | 15 µg/mL (≈ 32 µM) | 15 µg/mL (≈ 32 µM) | 19 µg/mL (≈ 40.5 µM) | 3 µg/mL (≈ 6.4 µM) | 0.7 µg/mL (≈ 1.49 µM) | 1 µg/mL (≈ 2.13 µM) | 2 µg/mL (≈ 4.27 µM)
